Data reported in PubChem BioAssay (NCI).
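Cells were grown in 96-well plates and exposed to each compound for 48 hours at five concentrations; endpoints were interpolated linearly between bracketing concentrations, or set to the highest concentration if not reached. At the TGI there is no net growth.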

Columns and labels:
Experiment in all cases: DTP human tumour cell line panel, 48 h
DU-145 prostate = test system: DU-145 prostate
UACC-62 melanoma = test system: UACC-62 melanoma
HS 578T breast = test system: HS 578T breast
OVCAR-3 ovarian = test system: OVCAR-3 ovarian
BT-549 breast = test system: BT-549 breast
IGROV1 ovarian = test system: IGROV1 ovarian
NCI-H23 lung = test system: NCI-H23 lung
SF-539 CNS = test system: SF-539 CNS
NCI-H522 lung = test system: NCI-H522 lung
ACHN renal = test system: ACHN renal
CAKI-1 renal = test system: CAKI-1 renal
OVCAR-4 ovarian = test system: OVCAR-4 ovarian
SNB-19 CNS = test system: SNB-19 CNS
OVCAR-5 ovarian = test system: OVCAR-5 ovarian
SR leukemia = test system: SR leukemia
RPMI-8226 leukemia = test system: RPMI-8226 leukemia
HT29 colon = test system: HT29 colon
T-47D breast = test system: T-47D breast
MOLT-4 leukemia = test system: MOLT-4 leukemia
U251 CNS = test system: U251 CNS
HOP-62 NSCLC = test system: HOP-62 NSCLC
SF-268 CNS = test system: SF-268 CNS
HCT-15 colon = test system: HCT-15 colon
LOX IMVI melanoma = test system: LOX IMVI melanoma
EKVX NSCLC = test system: EKVX NSCLC
NCI-H460 lung = test system: NCI-H460 lung
MALME-3M melanoma = test system: MALME-3M melanoma
SW-620 colon = test system: SW-620 colon
K-562 leukemia = test system: K-562 leukemia
MCF7 breast = test system: MCF7 breast
NCI/ADR-RES ovarian = test system: NCI/ADR-RES ovarian
TK-10 renal = test system: TK-10 renal
HL-60(TB) leukemia = test system: HL-60(TB) leukemia
NCI-H226 lung = test system: NCI-H226 lung
MDA-N = test system: MDA-N
KM12 colon = test system: KM12 colon
A498 renal = test system: A498 renal
PC-3 prostate = test system: PC-3 prostate
COLO 205 colon = test system: COLO 205 colon
M14 melanoma = test system: M14 melanoma
SF-295 CNS = test system: SF-295 CNS
CCRF-CEM leukemia = test system: CCRF-CEM leukemia
UACC-257 melanoma = test system: UACC-257 melanoma
HCT-116 colon = test system: HCT-116 colon
SK-MEL-5 melanoma = test system: SK-MEL-5 melanoma
786-0 renal = test system: 786-0 renal
HOP-92 NSCLC = test system: HOP-92 NSCLC
SNB-75 CNS = test system: SNB-75 CNS
SK-OV-3 ovarian = test system: SK-OV-3 ovarian
MDA-MB-435 = test system: MDA-MB-435
SK-MEL-2 melanoma = test system: SK-MEL-2 melanoma
OVCAR-8 ovarian = test system: OVCAR-8 ovarian
A549 NSCLC = test system: A549 NSCLC
UO-31 renal = test system: UO-31 renal
SN12C renal = test system: SN12C renal
RXF 393 renal = test system: RXF 393 renal
MDA-MB-231 breast = test system: MDA-MB-231 breast
HCC-2998 colon = test system: HCC-2998 colon
SK-MEL-28 melanoma = test system: SK-MEL-28 melanoma

Measured: TGI

CCOC(=O)CCC(C(=O)OCC)n1nnc2ccc(Nc3c(C)[n+]([O-])c4cc(F)c(OCC)cc4[n+]3[O-])cc21 (stereo unspecified)
64.4 µM: SF-539 CNS
68.6 µM: MCF7 breast
67.4 µM: OVCAR-3 ovarian
42 µM: UACC-257 melanoma
43.1 µM: UACC-62 melanoma
54.3 µM: RPMI-8226 leukemia
83.5 µM: COLO 205 colon
not listed: MDA-MB-231 breast | HCC-2998 colon | SK-MEL-28 melanoma
> 100 µM: all other assays above

C=CC(=C)CCC(Br)C(C)(C)Cl (stereo unspecified)
54.2 µM: NCI-H522 lung
not listed: CAKI-1 renal | SR leukemia | LOX IMVI melanoma | A498 renal
> 100 µM: all other assays above
